Where two headings read alike, the source gives them in different places. Some results are limits rather than exact numbers.

The test system of experiment [1] is ovariectomized female rats. Kind of experiment: Multi-endpoint adult rat model, uterus/breast tissue-selectivity. Type of experiment: in vivo. Conditions: ratio of relative efficacy to MPA in uterus verse in breast tissue at the same highest dose tested; estrone-treated ovariectomized rats, three days.
Text: In this assay, advantage is taken of the fact that in the uterus, estrogens induce a proliferation and increase in the epithelial cell height and uterine wet weight, which can be antagonized by progestins. In the breast, estrogens induce a proliferation of the ductal network while progestins stimulate the growth of the lobular-alveolar end buds, which grow from the distal end of the ducts. […] Proliferating cells or inhibition of proliferating cells were quantitated either by measurements of cell height in sectioned and stained tissue samples or, in the case of the breast, immuno-histochemically labeled Brdu incorporated nuclei.
Experiment [2] has as its target T1, hPR (Homo sapiens, UniProt P06401).
T1 sequence (P06401 679-933 limits assumed): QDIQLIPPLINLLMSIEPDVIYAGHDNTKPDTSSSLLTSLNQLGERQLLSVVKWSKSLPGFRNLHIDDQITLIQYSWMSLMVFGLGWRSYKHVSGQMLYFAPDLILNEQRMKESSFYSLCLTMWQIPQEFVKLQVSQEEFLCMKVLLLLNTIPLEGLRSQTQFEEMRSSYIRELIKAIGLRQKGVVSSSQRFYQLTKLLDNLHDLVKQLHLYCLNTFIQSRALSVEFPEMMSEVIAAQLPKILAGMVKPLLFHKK
The experiment can be described thus: T47D alkaline phosphatase assay, agonist mode. Type of experiment: cell-based. The note with it: T47D human breast cancer cells.
Text: The potential tissue-selectivities of the selected analogues were examined by using the T47D alkaline phosphatase assay that was developed from human breast cancer cells with endogenous PRs.

The next experiment has as its system immature rabbits. Kind of experiment: McPhail (Clauberg) rabbit assay of progestational activity. Type of experiment: in vivo. Conditions: Oryctolagus cuniculus; estradiol-primed immature rabbits; glandular changes of the uterus; read-out: potency (MAD in mg/kg), minimum active dose. The method, then:
The superiority of the 7,9-difluoro analogue compounds of the present invention was further characterized utilizing the McPhail rabbit model according to the following illustrative Examples. The Clauberg or McPhail assay is a classic assay utilizing rabbits to measure progestational activity. […] In this assay, immature rabbits are treated initially with estradiol, which induces growth in the uterus. This is followed by a progestin, which causes a large change in the glandular content of the uterus. It is this change in the glandular component which is a measure of the progestational activity of a progestin. The measurement of these glandular changes is carried out histologically using stained sections of the uterus. The in vivo comparison between the new 7,9-difluoro compounds and analogues with substitution patterns different from 7,9-difluoro (U.S. Pat. Nos. 5,693,646 and 5,696,127) is tabulated in Tables 7 and 8. The in vivo potency of the progestins is presented as the minimum active dose (MAD).

Experiment [3] has as its target T2, hPR (Homo sapiens, UniProt P06401).
T2 sequence (P06401 1-933): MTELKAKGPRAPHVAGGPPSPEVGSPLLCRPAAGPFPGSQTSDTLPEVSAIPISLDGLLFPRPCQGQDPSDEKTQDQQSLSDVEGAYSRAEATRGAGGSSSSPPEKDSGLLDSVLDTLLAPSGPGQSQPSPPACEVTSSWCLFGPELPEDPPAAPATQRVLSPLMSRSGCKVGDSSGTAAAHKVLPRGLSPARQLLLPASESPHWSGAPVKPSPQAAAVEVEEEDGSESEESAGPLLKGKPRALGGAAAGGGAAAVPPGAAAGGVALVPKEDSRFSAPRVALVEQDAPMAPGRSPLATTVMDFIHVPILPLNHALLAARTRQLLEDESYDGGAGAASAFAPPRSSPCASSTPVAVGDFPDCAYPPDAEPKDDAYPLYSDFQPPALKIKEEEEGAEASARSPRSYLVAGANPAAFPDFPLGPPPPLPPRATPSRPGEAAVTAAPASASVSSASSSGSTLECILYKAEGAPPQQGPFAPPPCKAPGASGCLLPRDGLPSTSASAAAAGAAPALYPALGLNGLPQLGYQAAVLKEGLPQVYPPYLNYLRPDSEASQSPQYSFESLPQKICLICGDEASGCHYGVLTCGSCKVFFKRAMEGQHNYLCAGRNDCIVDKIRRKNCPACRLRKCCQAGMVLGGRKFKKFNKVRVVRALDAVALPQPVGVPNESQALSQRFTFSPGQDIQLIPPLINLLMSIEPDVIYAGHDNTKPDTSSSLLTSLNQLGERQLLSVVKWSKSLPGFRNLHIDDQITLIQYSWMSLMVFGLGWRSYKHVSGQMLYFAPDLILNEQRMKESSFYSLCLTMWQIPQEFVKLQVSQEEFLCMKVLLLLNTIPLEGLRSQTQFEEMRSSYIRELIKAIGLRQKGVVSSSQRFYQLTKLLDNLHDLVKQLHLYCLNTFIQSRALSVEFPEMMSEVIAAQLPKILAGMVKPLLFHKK
Kind of experiment: hPR cotransfection assay in CV-1 cells, antagonist mode. Type of experiment: cell-based. The note with it: CV-1 cells.
Experimental: (§1) Antagonist efficacy was determined as a function (%) of maximal inhibition of a reference agonist at EC50 concentration. All the cotransfection experiments were carried out in 96-well plates by automation (Beckman Biomomek automated workstation).

A further experiment deals with T3, hPR-A (Homo sapiens, UniProt P06401).
T3 sequence (P06401 1-769 isoform P06401-2): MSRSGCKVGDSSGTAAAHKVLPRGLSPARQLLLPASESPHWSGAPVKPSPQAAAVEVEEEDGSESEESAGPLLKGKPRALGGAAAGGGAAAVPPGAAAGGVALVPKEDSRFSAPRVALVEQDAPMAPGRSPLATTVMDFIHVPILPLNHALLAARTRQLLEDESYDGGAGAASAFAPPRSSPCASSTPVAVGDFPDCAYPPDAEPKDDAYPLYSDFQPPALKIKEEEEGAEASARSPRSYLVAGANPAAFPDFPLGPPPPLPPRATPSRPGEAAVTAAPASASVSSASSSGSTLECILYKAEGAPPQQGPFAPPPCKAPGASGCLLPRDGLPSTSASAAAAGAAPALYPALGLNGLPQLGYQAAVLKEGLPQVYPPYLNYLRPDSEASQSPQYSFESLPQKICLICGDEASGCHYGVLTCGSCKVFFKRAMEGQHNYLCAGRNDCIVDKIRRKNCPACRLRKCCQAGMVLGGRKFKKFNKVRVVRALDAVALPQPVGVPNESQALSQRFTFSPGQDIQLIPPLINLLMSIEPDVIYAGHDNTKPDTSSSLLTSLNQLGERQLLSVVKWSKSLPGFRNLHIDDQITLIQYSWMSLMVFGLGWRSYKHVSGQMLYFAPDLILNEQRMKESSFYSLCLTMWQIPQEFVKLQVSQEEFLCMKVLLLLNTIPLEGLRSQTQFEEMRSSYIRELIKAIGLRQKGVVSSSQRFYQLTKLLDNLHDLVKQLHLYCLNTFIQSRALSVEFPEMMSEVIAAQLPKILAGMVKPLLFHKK
The experiment can be described thus: Receptor competitive binding assay. The note with it: read-out: PR binding Ki.

Experiment [4] addresses T2, hPR. Kind of experiment: hPR cotransfection assay in CV-1 cells, agonist mode. Type of experiment: cell-based. Conditions: CV-1 cells.
Experimental: as §1
Experiment [5] has as its target T2, hPR.
The mark [6] stands for this setting: footnote a: EC50 data from U.S. Pat. Nos. 5693646/5693647/5696127; read-out: hPR agonist potencies (EC50 in nM) in the cotransfection assay; cited from earlier work.
Setting [7] is: footnote b: EC50 data from J. Med. Chem. 41 (1998), 291 and 303; read-out: hPR agonist potencies (EC50 in nM) in the cotransfection assay; cited from earlier work.

Consider `CC1=CC(C)(C)Nc2ccc3c(c21)C(c1ccc(Cl)c(C)c1)Oc1c(F)cc(F)cc1-3` (single isomer, unassigned; (-)) [Compound 38, (−)-7,9-difluoro-5-(4-chloro-3-methylphenyl)-1,2-dihydro-2,2,4-trimethyl-5H-chromeno[3,4-f]quinoline], for which, in experiment [1], the uterus/breast tissue-selectivity is recorded as 2.8. Besides, the EC50 worked out at 6.2 nM at hPR [2] and 1.2 nM at hPR [4] (read-out: hPR Agonist CV-1 Cells EC50). The “hPR Agonist T47D cells Eff. (%)” value on hPR [2] is reported as 54%. In addition, the minimal effective dose in the experiment on immature rabbits was determined as 0.25 mg/kg. Moreover, the IC50 at hPR [3] is more than 10000 nM. At hPR [3] (maximal inhibition of reference agonist at EC50 concentration), the “hPR Antagonist CV-1 Cells Eff. (%)” value is “na (na = not active (i.e. efficacy of <20 and potency of >10,000))”. The inhibition constant Ki at hPR-A amounted to 2 nM. For the same compound, on hPR [4] (relative to maximal response of progesterone as 100%), the “hPR Agonist CV-1 Cells Eff. (%)” value was found to be 110%.

With `CC1=CC(C)(C)Nc2ccc3c(c21)C(c1cccc(F)c1)Oc1ccccc1-3` (centres unmarked) [Formula I X=H 3-F-Ph], the 50% effective concentration (EC50) at hPR [5] (setting [6]) was 9 nM.

With `CC1=CC(C)(C)Nc2ccc3c(c21)C(c1ccccc1)Oc1ccccc1-3` (centres unmarked) [Formula I X=H Ph, reference compound], in experiment [1], the uterus/breast tissue-selectivity was found to be 0.78. Besides, the concentration giving a half-maximal response (EC50) on hPR [5] (setting [6]) is 203 nM.

Consider `CC1=CC(C)(C)Nc2ccc3c(c21)C(=Cc1ccccc1C)Oc1ccc(F)cc1-3` [Formula II X=9-F 2-Me-Ph, reference compound], for which the uterus/breast tissue-selectivity in experiment [1] is 2.3. In addition, the minimal effective dose in the experiment on immature rabbits amounted to 1.2 mg/kg. Also, the EC50 on hPR [5] (setting [6]) was 4 nM.

With `CC1=CC(C)(C)Nc2ccc3c(c21)C(=Cc1cc(F)ccc1F)Oc1ccccc1-3` [Formula II X=H 2,5-diF-Ph], the 50% effective concentration (EC50) on hPR [5] (setting [7]) is 14.7 nM.

For the compound `CC1=CC(C)(C)Nc2ccc3c(c21)C(=Cc1ccccc1Cl)Oc1ccccc1-3` [Formula II X=H 2-Cl-Ph], the EC50 at hPR [5] (setting [7]) is 57.8 nM.

In the case of `CC1=CC(C)(C)Nc2ccc3c(c21)C(=Cc1ccccc1F)Oc1ccccc1-3` [Formula II X=H 2-F-Ph], the EC50 at hPR [5] (setting [7]) is 29 nM.

Consider `CC1=CC(C)(C)Nc2ccc3c(c21)C(=Cc1ccccc1C)Oc1ccccc1-3` [Formula II X=H 2-Me-Ph], for which the half-maximal effective concentration (EC50) on hPR [5] (setting [7]) was 5.7 nM.

`CC1=CC(C)(C)Nc2ccc3c(c21)C(=Cc1cccc(F)c1)Oc1ccccc1-3` [Formula II X=H 3-F-Ph, reference compound]: in experiment [1], the uterus/breast tissue-selectivity was 0.69. On hPR [5] (read-out: hPR agonist potencies (EC50 in nM) in the cotransfection assay; footnote b: EC50 data from J. Med. Chem. 41 (1998), 291 and 303; cited from earlier work), the EC50 is 7.6 nM.

As for `CC1=CC(C)(C)Nc2ccc3c(c21)C(=Cc1ccc(F)cc1)Oc1ccccc1-3` [Formula II X=H 4-F-Ph], on hPR [5] (setting [7]), the EC50 was 59.5 nM.

`CC1=CC(C)(C)Nc2ccc3c(c21)C(=Cc1ccccc1)Oc1ccccc1-3` [Formula II X=H Phenyl]: on hPR [5] (setting [6]), the 50% effective concentration (EC50) is 33 nM.

A word on the EC50: it is the concentration that produces a half-maximal response. The IC50 is the concentration that inhibits the measured activity by half. Read a high IC50 as weaker potency in that assay. For orientation: Ki means the equilibrium dissociation constant of an inhibitor or competing ligand from its target.

Values taken from patent US7163946B2 (Ligand Pharmaceuticals Incorporated, priority 2002, dated 2007).
